According to patent US8716326B2, “Isoindolinone derivatives, preparation method thereof and a pharmaceutical composition comprising same” (Korea Research Institute of Chemical Technology, priority 2009, dated 2014):

Tested on: Runx2
Assay: Runx2 activity, 6xOSE2-Luc luciferase reporter in transfected C2C12 cells
Assay type: cell-based, Mouse
Settings: 24 hrs; for fold induction at 2.5 µM / fold induction at 5 µM / fold induction at 10 µM / fold induction at 20 µM: Mus musculus, read-out: luciferase activity relative to control set as 1
Method: Mouse premyoblast cell (C2C12 cell) was transfected using receptor vector 6xOSE2-Luc in order to investigate the activity of the amide compound of the present invention on Runx2.
Specifically, the receptor vector 6xOSE2-Luc was prepared by inserting an artificial promoter linked by six tandem copies of the OSE2 (osteoblast specific element-2) into vector pGL3 (Promega; Madison, Wis., U.S.A.), and then, cloned into the C2C12 cell to be transfected (Kim et al., Journal of Cellular Biochemistry, 91: 1239-1247, 2004). The OSE2 is the binding site of Runx2 in the promoter of osteocalcin which is a bone marker.
C2C12 cells (5,000 cells/well) were plated onto 96-well plates using 10% FBS (fetal bovine serum; Hyclone)-containing DMEM (Dulbecco's Modified Eagle's Medium), the medium was replaced with 5% FBS-containing DMEM after 24 hrs, and treated with each of the amide compounds obtained in Examples 1 to 94 at various concentrations of 2.5 μM, 5.0 μM, 10 μM, and 20 μM. As a control, dimethyl sulfoxide (DMSO) vehicle was applied to the cell in an amount same as that of the amide compound. After 24 hrs, the luciferase activity in the cell lysate was measured by using Dual-Luciferase Reporter Assay System (Promega). The luciferase activity of the amide compound of the present invention was calculated as a value relative to that observed for the control which was set as 1.

Row | Compound | fold induction at 2.5 µM (2.5 μM) | fold induction at 5 µM (5.0 μM) | fold induction at 10 µM (10 μM) | fold induction at 20 µM (20 μM) | luciferase activity relative to control set as 1 (2.5 μM) [fold] | luciferase activity relative to control set as 1 (5.0 μM) [fold] | luciferase activity relative to control set as 1 (10 μM) [fold] | luciferase activity relative to control set as 1 (20 μM) [fold]
1 | COc1cc2c(c(Br)c1OC)CN(Cc1ccc(C(=O)Nc3ccccc3N)cc1)C2=O [Example 1, N-(2-aminophenyl)-4-((4-bromo-5,6-dimethoxy-1-oxoisoindolin-2-yl)methyl)benzamide] | 21.4 | 26.2 | 19.9 | 15.8 | – | – | – | –
2 | COc1cc2c(c(-c3ccccc3)c1OC)CN(Cc1ccc(C(=O)Nc3ccccc3N)cc1)C2=O [Example 2, N-(2-aminophenyl)-4-((5,6-dimethoxy-1-oxo-4-phenylisoindolin-2-yl)methyl)benzamide] | 27.3 | 24.8 | 19.7 | 21.7 | – | – | – | –
3 | COc1cc2c(c(-c3cc(C)cc(C)c3)c1OC)CN(Cc1ccc(C(=O)Nc3ccccc3N)cc1)C2=O [Example 3, N-(2-aminophenyl)-4-((5,6-dimethoxy-4-(3,5-dimethylphenyl)-1-oxoisoindolon-2-yl)methyl)benzamide] | – | – | – | – | 25.2 | 25.7 | 22.7 | 18.7
4 | COc1cc2c(c(-c3cccnc3)c1OC)CN(Cc1ccc(C(=O)Nc3ccccc3N)cc1)C2=O [Example 4, N-(2-aminophenyl)-4-((5,6-dimethoxy-1-oxo-4-(pyridin-3-yl)isoindolin-2-yl)methyl)benzamide] | 37 | 42.2 | 36.6 | 36.7 | – | – | – | –
5 | COc1ccc(-c2c3c(cc(OC)c2OC)C(=O)N(Cc2ccc(C(=O)Nc4ccccc4N)cc2)C3)cc1 [Example 5, N-(2-aminophenyl)-4-((5,6-dimethoxy-4-(4-methoxyphenyl)-1-oxoisoindolin-2-yl)methyl)benzamide] | 30.4 | 25.3 | 17.7 | 15.4 | – | – | – | –
6 | COc1cc2c(c(-c3ccc(C(F)(F)F)cc3)c1OC)CN(Cc1ccc(C(=O)Nc3ccccc3N)cc1)C2=O [Example 6, N-(2-aminophenyl)-4-((4-(4-(trifluoromethyl)phenyl)-5,6-dimethoxy-1-oxoisoindolin-2-yl)methyl)benzamide] | 14.2 | 18.3 | 17.2 | 9.3 | – | – | – | –
7 | COc1ccc(-c2c3c(cc(OC)c2OC)C(=O)N(Cc2ccc(C(=O)Nc4ccccc4N)cc2)C3)cc1OC [Example 7, N-(2-aminophenyl)-4-((5,6-dimethoxy-4-(3,4-dimethoxyphenyl)-1-oxoisoindolin-2-yl)methyl)benzamide] | 24.6 | 26.9 | 24.3 | 18.4 | – | – | – | –
8 | Nc1ccccc1NC(=O)c1ccc(CN2Cc3c(Br)cccc3C2=O)cc1 [Example 9, N-(2-aminophenyl)-4-((4-bromo-1-oxoisoindolin-2-yl)methyl)benzamide] | 12.4 | 11.3 | 9.7 | 9.4 | – | – | – | –
9 | Nc1ccccc1NC(=O)c1ccc(CN2Cc3c(cccc3-c3cncnc3)C2=O)cc1 [Example 10, N-(2-aminophenyl)-4-((1-oxo-4-(pyrimidin-5-yl)isoindolin-2-yl)methyl)benzamide] | 7.9 | 11.6 | 14.4 | 16.7 | – | – | – | –
10 | Nc1ccccc1NC(=O)c1ccc(CN2Cc3c(cccc3-c3ccccc3)C2=O)cc1 [Example 11, N-(2-aminophenyl)-4-((1-oxo-4-phenylisoindolin-2-yl)methyl)benzamide] | 8.3 | 12.3 | 15.6 | 16.8 | – | – | – | –
11 | Cc1cc(C)cc(-c2cccc3c2CN(Cc2ccc(C(=O)Nc4ccccc4N)cc2)C3=O)c1 [Example 12, N-(2-aminophenyl)-4-((4-(3,5-dimethylphenyl)-1-oxoisoindolin-2-yl)methyl)benzamide] | 5.5 | 9 | 12.2 | 10.4 | – | – | – | –
12 | Nc1ccccc1NC(=O)c1ccc(CN2Cc3c(cccc3-c3ccc(C(F)(F)F)cc3)C2=O)cc1 [Example 13, N-(2-aminophenyl)-4-((4-(4-(trifluoromethyl)phenyl)-1-oxoisoindolin-2-yl)methyl)benzamide] | 7.9 | 8 | 9.3 | 7.2 | – | – | – | –
13 | Nc1ccccc1NC(=O)c1ccc(CN2Cc3c(cccc3-c3cccnc3)C2=O)cc1 [Example 14, N-(2-aminophenyl)-4-((1-oxo-4-(pyridin-3-yl)isoindolin-2-yl)methyl)benzamide] | 12 | 15.7 | 15.4 | 16.9 | – | – | – | –
14 | COc1ccc(-c2cccc3c2CN(Cc2ccc(C(=O)Nc4ccccc4N)cc2)C3=O)cc1 [Example 15, N-(2-aminophenyl)-4-((4-(4-methoxyphenyl)-1-oxoisoindolin-2-yl)methyl)benzamide] | 7.4 | 10.4 | 12 | 14 | – | – | – | –
15 | COc1ccc(-c2cccc3c2CN(Cc2ccc(C(=O)Nc4ccccc4N)cc2)C3=O)cc1OC [Example 16, N-(2-aminophenyl)-4-((4-(3,4-dimethoxyphenyl)-1-oxoisoindolin-2-yl)methyl)benzamide] | 12.2 | 12.3 | 8.5 | 9.2 | – | – | – | –
16 | Nc1ccccc1NC(=O)c1ccc(CN2Cc3c(cccc3-c3cc(F)cc(F)c3)C2=O)cc1 [Example 17, N-(2-aminophenyl)-4-((4-(3,5-difluorophenyl)-1-oxoisoindolin-2-yl)methyl)benzamide] | 11.2 | 14.7 | 16.3 | 15.8 | – | – | – | –
17 | Nc1cccc(-c2cccc3c2CN(Cc2ccc(C(=O)Nc4ccccc4N)cc2)C3=O)c1 [Example 18, N-(2-aminophenyl)-4-((4-(3-aminophenyl)-1-oxoisoindolin-2-yl)methyl)benzamide] | 15.3 | 16.2 | 20.2 | 18.5 | – | – | – | –
18 | Nc1ccccc1NC(=O)c1ccc(CN2Cc3c(cccc3-c3ccc4c(c3)OCO4)C2=O)cc1 [Example 19, N-(2-aminophenyl)-4-((4-(benzo[d][1,3]dioxol-6-yl)-1-oxoisoindolin-2-yl)methyl)benzamide] | 10.8 | 9.9 | 11.7 | 14 | – | – | – | –
19 | N#Cc1ccc(-c2cccc3c2CN(Cc2ccc(C(=O)Nc4ccccc4N)cc2)C3=O)cc1 [Example 20, N-(2-aminophenyl)-4-[4-(4-cyanophenyl)-1-oxo-2,3-dihydro-1H-isoindol-2-yl]methylbenzamide] | 16.2 | 19.4 | 19.3 | 16.8 | – | – | – | –
20 | Nc1ccccc1NC(=O)c1ccc(CN2Cc3c(cccc3-c3ccc4ccccc4c3)C2=O)cc1 [Example 21, N-(2-aminophenyl)-4-((4-(naphthalen-2-yl)-1-oxoisoindolin-2-yl)methyl)benzamide] | 6.4 | 8.7 | 11.6 | 11.7 | – | – | – | –
21 | COc1ccc(-c2cccc3c2CN(Cc2ccc(C(=O)Nc4ccccc4N)cc2)C3=O)cn1 [Example 22, N-(2-aminophenyl)-4-((4-(6-methoxypyridin-3-yl)-1-oxoisoindolin-2-yl)methyl)benzamide] | 12.4 | 9.5 | 10.2 | 10.3 | – | – | – | –
22 | CC(=O)Nc1cccc(-c2cccc3c2CN(Cc2ccc(C(=O)Nc4ccccc4N)cc2)C3=O)c1 [Example 23, N-(2-aminophenyl)-4-[4-(3-acetamidophenyl)-1-oxo-2,3-dihydro-1H-isoindol-2-yl]methylbenzamide] | 3.9 | 5.1 | 18.1 | 33.2 | – | – | – | –
23 | COc1ccc(-c2cccc3c2CN(Cc2ccc(C(=O)Nc4ccccc4N)cc2)C3=O)cc1F [Example 24, N-(2-aminophenyl)-4-((4-(3-fluoro-4-methoxyphenyl)-1-oxoisoindolin-2-yl)methyl)benzamide] | 11.8 | 17.3 | 19.6 | 21.2 | – | – | – | –
24 | Nc1ccccc1NC(=O)c1ccc(CN2Cc3c(cccc3-c3ccc(-c4ccccc4)cc3)C2=O)cc1 [Example 25, N-(2-aminophenyl)-4-[1-oxo-4-(4-phenylphenyl)-2,3-dihydro-1H-isoindol-2-yl]methylbenzamide] | 6.8 | 11.3 | 17.9 | 19.7 | – | – | – | –
